Tests used:
[1] = tested on: IPF; assay: Phase two study in IPF patients: UCSD Shortness of Breath Questionnaire (UCSD-SOBQ); format: in vivo, human; conditions: for mean UCSD-SOBQ score: IPF patients, n=22, FIG. 6 change from baseline
Source text: A sub-set of patients in the Phase two clinical trial described above in Example 2 (pamrevlumab n=22, placebo n=20), self-administered the University of California, San Diego—Shortness of Breath Questionnaire (UCSD-SOBQ) at the start of therapy (baseline) and then every 12 weeks while enrolled in the 48 week study. The UCSD-SOBQ has been validated as an acceptable measure to assess change in dyspnea over time in IPF (Swigris et al., Respir Med. 2012 October; 106(10): 1447-1455).
The questionnaire has 24 sections that assess dyspnea associated with activities of daily living (ADLs) in different lung disorders, including IPF. Twenty-one sections relate to the severity of dyspnea experienced during different daily activities, while three sections assess the limitations due to shortness of breath, fear of harm from overexertion and fear of shortness of breath. Each question has a 6-point scale (0=“not at all” to 5=“maximal or unable to do because of breathlessness”. The total score ranges from 0 to 120, with higher scores indicating greater dyspnea.
An ANCOVA model with treatment as fixed effect and baseline UCSD-SOBQ score as covariate was applied to observed and imputed data at each visit. Missing results at post-baseline visits were mputed using the predicted values from a random coefficient model. The analysis included all subjects who had baseline and at least one post-baseline UCSD-SOBQ evaluation.

[2] = tested on: radiation-induced lung fibrosis; assay: Mouse radiation-induced lung fibrosis model: lung density by HRCT; format: in vivo; conditions: 14.5 Gy irradiated mice, treated 8 weeks from week 16, measured at 24 weeks; FIG. 2
Description: The objective of this study was to compare the activity of pamrevlumab monotherapy to either pirfenidone or nintedanib alone, and to evaluate the potential for enhanced activity of the combined agents. […] In this study, mice received thoracic irradiation (RT), followed by the therapeutic administration of the agents at 16 weeks post-irradiation when lung remodeling was evident by HRCT. After 8 weeks of drug treatment, lung density and volume were assessed by HRCT, lung function was assessed by blood gas analysis, and mice were sacrificed for histologic and gene expression analysis. C57B1/6 mice were irradiated with 14.5 Gy photons; full thorax, single dose. Treatment with therapeutic agent(s) (pamrevlumab, pirfenidone, and/or nintedanib) was initiated 16 weeks post-irradiation and continued for 8 weeks. Pamrevlumab (FG) was given IP, BIW, at 40 mg/kg; pirfenidone (PF) was given PO in chow, QD, at 300 mg/kg; nintedanib (ND) was given PO in chow, QD, at 100 mg/kg. Treatment with each agent alone, with combinations of two, and with a triple combination were carried out. Controls included non-irradiated mice, mice that were irradiated and not treated, and mice that were irradiated and given human IgG. Endpoint measurements were taken at 24 weeks for HRCT (lung structure), blood gas analysis (lung function), histology and gene expression analysis. […]

pamrevlumab
mean UCSD-SOBQ score ([1]; Week 12): 1.98
mean UCSD-SOBQ score ([1]; Week 36): 3.76
mean UCSD-SOBQ score ([1]; Week 48): 2.26
difference in mean UCSD-SOBQ score between the two arms ([1]; pamrevlumab vs placebo, Week 48, p-value=0.0460): −13.32 points
radiation-induced increase in lung density (Hounsfield Units) [2]: significantly inhibited the increase in radiation-induced lung density from baseline

— patent US20190127456A1, “METHODS OF TREATING IDIOPATHIC PULMONARY FIBROSIS” (FibroGen, Inc., priority 2017, published 2019)
